The values below come from PubChem BioAssay (NCI).

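The compound was tested at five concentrations on cells cultured in 96-well plates, with a 48-hour exposure period. Abbreviation: GI50, concentration required for 50% inhibition of growth. TGI marks complete inhibition of growth.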

Test systems include ACHN renal; CCRF-CEM leukemia; EKVX NSCLC; MALME-3M melanoma; MDA-MB-231 breast; SF-295 CNS; SK-OV-3 ovarian; T-47D breast; TK-10 renal; SR leukemia.
Holding throughout (experiment): NCI-60 cell line screen, 48 h

For the compound `CCn1c(-c2nonc2N)nc2cnc(Oc3cccc(NC(=O)c4ccc(N(C)C)cc4)c3)cc21`, the GI50 with ACHN renal is > 25 µM; in the experiment with CCRF-CEM leukemia it was 1.82 µM; in the experiment on EKVX NSCLC it was 2.87 µM; in the experiment on MALME-3M melanoma it was > 25 µM; in the experiment with MDA-MB-231 breast it was > 17 µM; in the experiment on SF-295 CNS, 12 µM. Further, the GI50 in the experiment with SK-OV-3 ovarian is > 13.7 µM; with T-47D breast, 9.62 µM; with TK-10 renal it was 0.549 µM. In addition, the TGI in the experiment on ACHN renal, in the experiment with CCRF-CEM leukemia, in the experiment on EKVX NSCLC, in the experiment on MALME-3M melanoma, in the experiment on MDA-MB-231 breast and in the experiment with SF-295 CNS was > 25 µM each time. The TGI in the experiment with SK-OV-3 ovarian is > 25 µM; in the experiment with T-47D breast, > 25 µM; in the experiment on TK-10 renal, > 21 µM.

As for `COc1ccc2c(c1OC)O/C(=C\c1ncc([N+](=O)[O-])n1C)C2=O`, the GI50 with ACHN renal was 0.342 µM; in the experiment on CCRF-CEM leukemia, 0.297 µM; in the experiment on MALME-3M melanoma, 1.15 µM; in the experiment on MDA-MB-231 breast, 1.37 µM; with SF-295 CNS, 3.13 µM; with SK-OV-3 ovarian, 2.71 µM. Further, the GI50 with SR leukemia was 0.103 µM; with T-47D breast, > 70.9 µM; in the experiment with TK-10 renal, 3.26 µM. Moreover, the TGI with ACHN renal is 1.46 µM; in the experiment with CCRF-CEM leukemia, 2.83 µM; in the experiment with MALME-3M melanoma it was 3.53 µM; in the experiment with MDA-MB-231 breast, 5.32 µM; in the experiment on SF-295 CNS, 21.7 µM; in the experiment with SK-OV-3 ovarian it was 9.1 µM. The TGI was > 100 µM in the experiment with T-47D breast and > 24.1 µM in the experiment with TK-10 renal.

For `COc1ccc(C)cc1NC(=S)C#N`, the TGI with ACHN renal, in the experiment with CCRF-CEM leukemia, in the experiment on MDA-MB-231 breast, in the experiment on SF-295 CNS, in the experiment with SK-OV-3 ovarian and in the experiment with T-47D breast was > 100 µM throughout. Moreover, the TGI with TK-10 renal is > 100 µM.

`CC(=O)Oc1cc2cnc3c4cc(OC(C)=O)c(OC(C)=O)cc4ccc3c2cc1OC(C)=O`: the GI50 in the experiment on ACHN renal was 1.19 µM; in the experiment with CCRF-CEM leukemia it was 0.608 µM; with MALME-3M melanoma, 1.55 µM; in the experiment on MDA-MB-231 breast, 1.02 µM; in the experiment on SF-295 CNS, 3.36 µM; with SK-OV-3 ovarian it was 4.32 µM. The GI50 in the experiment on SR leukemia is 0.629 µM; in the experiment on T-47D breast, 0.898 µM; in the experiment with TK-10 renal, 2.78 µM. Moreover, the TGI is > 100 µM in the experiment on ACHN renal; > 100 µM in the experiment with CCRF-CEM leukemia; 9.33 µM in the experiment on MALME-3M melanoma; > 100 µM in the experiment with MDA-MB-231 breast; > 100 µM in the experiment on SF-295 CNS; > 100 µM with SK-OV-3 ovarian. Moreover, the TGI in the experiment with SR leukemia, with T-47D breast and in the experiment on TK-10 renal was > 100 µM throughout.

As for `COc1ccc(-c2cc(/C=C/C(=O)c3ccc(N)cc3)[nH]n2)cc1`, the GI50 in the experiment with ACHN renal was 2.01 µM; in the experiment with CCRF-CEM leukemia, 1.32 µM; in the experiment with MALME-3M melanoma, 2.18 µM; in the experiment with MDA-MB-231 breast, 2.14 µM; in the experiment with SF-295 CNS it was 3.09 µM; in the experiment with SK-OV-3 ovarian, 4.72 µM. Further, the GI50 with SR leukemia is 0.799 µM; in the experiment on T-47D breast, 1.47 µM; with TK-10 renal it was 2.81 µM. Further, the TGI in the experiment on ACHN renal was found to be 10.6 µM; in the experiment on CCRF-CEM leukemia it was 4.91 µM; with MALME-3M melanoma it was 6.22 µM; in the experiment on MDA-MB-231 breast it was 8.29 µM; with SF-295 CNS, 13.1 µM; in the experiment with SK-OV-3 ovarian, 18 µM. Also, the results for the TGI in the experiment on SR leukemia, in the experiment on T-47D breast and in the experiment with TK-10 renal were 6.09 µM, 9.77 µM and 13 µM, respectively.

As for `COc1cc(-c2nn(-c3cccc(NC(=O)CCN4CCN(c5ccccc5)CC4)c3)cc2-c2ccncc2)ccc1Cl`, the GI50 was 2.67 µM in the experiment with ACHN renal; 3.38 µM in the experiment with CCRF-CEM leukemia; 3.31 µM in the experiment on EKVX NSCLC; 2.73 µM with MALME-3M melanoma; 2.28 µM with MDA-MB-231 breast; 2.41 µM with SF-295 CNS. Besides, the figures for the GI50 with SK-OV-3 ovarian, in the experiment on T-47D breast and in the experiment with TK-10 renal were 4.27 µM, 2.09 µM and 3.69 µM, respectively. Further, the TGI with ACHN renal is > 100 µM; with CCRF-CEM leukemia, > 100 µM; with EKVX NSCLC it was > 100 µM; with MALME-3M melanoma, 14.3 µM; in the experiment with MDA-MB-231 breast, 7.91 µM; in the experiment on SF-295 CNS, 18 µM. Further, the TGI in the experiment on SK-OV-3 ovarian, in the experiment with T-47D breast and in the experiment with TK-10 renal was > 100 µM throughout.

`O=C(O)CCCCC1CCSS1` (stereo not given): the TGI in the experiment on ACHN renal, in the experiment with CCRF-CEM leukemia, with EKVX NSCLC, in the experiment with MALME-3M melanoma, in the experiment with MDA-MB-231 breast and with SF-295 CNS was > 100 µM in each case. Besides, the TGI with SR leukemia, in the experiment on T-47D breast and with TK-10 renal was > 100 µM in each case.

As to `COc1ccc(C2=Nn3c(nnc3-n3nc(C)cc3C)SC2)cc1`, the GI50 in the experiment with ACHN renal was 0.0781 µM; in the experiment on CCRF-CEM leukemia it was 0.038 µM; in the experiment on MALME-3M melanoma, 0.0407 µM; in the experiment on MDA-MB-231 breast, 0.177 µM; with SK-OV-3 ovarian, 0.0908 µM; in the experiment on SR leukemia it was 0.0242 µM. For the same compound, in the experiment on TK-10 renal, the GI50 was 0.227 µM. For the same compound, the TGI is > 100 µM in the experiment on ACHN renal; > 100 µM in the experiment with CCRF-CEM leukemia; 70.5 µM with MALME-3M melanoma; > 100 µM with MDA-MB-231 breast; > 100 µM with SK-OV-3 ovarian; > 100 µM in the experiment with SR leukemia. For the same compound, the TGI with TK-10 renal was > 100 µM.

Turning to `COc1ccc(-c2csc(Nc3cccc(-c4csc(C)n4)c3)n2)cc1`, the GI50 in the experiment on ACHN renal is 0.859 µM; in the experiment on EKVX NSCLC it was 3.63 µM; with MDA-MB-231 breast, 0.824 µM; in the experiment with SF-295 CNS, 0.68 µM; with SK-OV-3 ovarian, 2.17 µM; in the experiment with SR leukemia, 0.0878 µM. The GI50 was 11.5 µM with T-47D breast and 5.04 µM with TK-10 renal. Further, the TGI with ACHN renal was 18.6 µM; in the experiment on EKVX NSCLC it was > 50 µM; with MDA-MB-231 breast it was 4.52 µM; in the experiment on SF-295 CNS, > 11.5 µM; in the experiment on SK-OV-3 ovarian, > 50 µM; in the experiment on SR leukemia, 0.27 µM. In addition, the TGI with T-47D breast and in the experiment with TK-10 renal was > 50 µM in each case.
